# Where “and” joins values, the source holds several entries; their conditions need not be identical. Equal values may be shown once. Read-outs that look alike come from different tables or passages of the source.
# Test system: non-senescent control IMR90 ER:RAS cells
# Assay: Nuclei count (Hoechst, high content imaging) senolytic assay, OIS model, non-senescent control cells
# Format: cell-based, human
# Source text: To test for senolytic activity, we compared the effect of each compound on the total cell number (automated high content image-based analysis of total number of nuclei per well) in non-senescent and senescent IMR90 ER:RAS cultures treated with the top hits from the computational screen (Figs. 2e and 3a–d and Supplementary Fig. 4a–c). The drop in cell number compared to untreated controls is indicated by the nuclei count and reflects cell death[13],[15]. As positive control, we employed ouabain, a cardiac glycoside with well characterised senolytic activity.
# We performed experimental validation of the compounds with z-score > 8 (Fig. 2e). […] We employed two cellular models of senescence: one of OIS and a second one of TIS. For the OIS case, we utilised IMR90 ER:RAS cells with 4-OHT at 100 nM. […] For the TIS model, we used A549 cells with etoposide at 100 μM. The exposure of the cells to etoposide lasted 48 h, after which period the cells were cultivated for a further three days with normal media.
# IMR90 (CCL-186) human foetal lung fibroblasts and A549 (CCL-185) human lung adenocarcinoma cells were obtained from the American Type Culture Collection (ATCC, Manassas, VA). The cell lines were confirmed to be mycoplasma negative (Lonza MycoAlert, cat #LT07-118). IMR90 ER:RAS is a derivative of IMR90 cells expressing a switchable version of oncogenic H-Ras[84]. IMR90 ER:RAS and A549 cells were maintained in Dulbecco’s Modified Eagle Medium (DMEM, ThermoFisher) supplemented with foetal bovine serum (10%), L-glutamine (2 mM, ThermoFisher), and antibiotic-antimycotic solution (1%, ThermoFisher) and incubated under standard tissue culture conditions (37 °C and 5% CO2). For induction of the senescent phenotype, IMR90-ER:RAS cells were cultured in hydroxytamoxifen (4-OHT) (Sigma) added media at 100 nM final concentration. IMR90 were kept in culture for over 27 passages for replicative senescence. Cells were tested for mycoplasma on a regular basis.
# Cells were seeded (50 μL per well) into 384-well plates (IMR90 ER:RAS cells in Nunc Optical Bottom Polybase Microplates [#142761, Thermo Scientific, Rochester, NY] and A549 cells in CELLSTAR Cell Culture Microplates [#781091, Greiner Bio-One, Kremsmünster, Austria]). Cells were incubated under standard tissue culture conditions for 24 h before the addition of compounds. Passage 14 IMR90 ER:RAS cells were seeded at 1300 cells per well in the control condition, and at 1600 cells per well in the senescent case. Passage 34 A549 cells were seeded at 7000 cells per well in the control condition, and at 10,000 cells per well in the senescent case.
# Dose response plates were prepared with a DMSO control and a 10-point […] concentration range, and added to the compounds using a D300e digital dispenser (Tecan Trading AG, Switzerland) at a final concentration of between 10 μM and 10 nM. Every screened condition was carried out in triplicate. After 72 h of incubation with exposure to the compounds, cells were fixed by the addition of an equal volume of formaldehyde (8%, 50 μL; #BP531-500, Fisher Bioreagents, Fisher Scientific, Loughborough, Leicestershire) to the existing media, incubated at room temperature (30 min), and washed three times in phosphate-buffered saline (PBS). Cells were then permeabilised in Triton-X100 (0.1%, 50 μL) and incubated at room temperature (30 min) followed by three more washes with PBS.
# Cells were stained with Hoechst 33342 for nuclei count (excitation/emission wavelength at 387/447 […], DAPI channel, original concentration at 10 mg/ml, final concentration at 2 μg/ml; H1399, Molecular Probes, Eugene, OR). The staining solution was prepared in bovine serum albumin solution (10%). The staining solution was added to each well (30 μL) and incubated in the dark at room temperature (30 min), followed by three washes with PBS and no final aspiration. Plates were foil sealed.
# [1] = Homo sapiens, IMR-90, 72 h, Control, log (dose) [M] -5, 72 h, mean n=3 (Fig 3C), read-out: Mean % Cell Survival
# [2] = Homo sapiens, IMR-90, 72 h, Control, log (dose) [M] -5.33, 72 h, mean n=3 (Fig 3C), read-out: Mean % Cell Survival
# [3] = Homo sapiens, IMR-90, 72 h, Control, log (dose) [M] -5.66, 72 h, mean n=3 (Fig 3C), read-out: Mean % Cell Survival
# [4] = Homo sapiens, IMR-90, 72 h, Control, log (dose) [M] -6, 72 h, mean n=3 (Fig 3C), read-out: Mean % Cell Survival
# [5] = Homo sapiens, IMR-90, 72 h, Control, log (dose) [M] -6.33, 72 h, mean n=3 (Fig 3C), read-out: Mean % Cell Survival
# [6] = Homo sapiens, IMR-90, 72 h, Control, log (dose) [M] -6.66, 72 h, mean n=3 (Fig 3C), read-out: Mean % Cell Survival
# [7] = Homo sapiens, IMR-90, 72 h, Control, log (dose) [M] -7, 72 h, mean n=3 (Fig 3C), read-out: Mean % Cell Survival
# [8] = Homo sapiens, IMR-90, 72 h, Control, log (dose) [M] -7.33, 72 h, mean n=3 (Fig 3C), read-out: Mean % Cell Survival
# [9] = Homo sapiens, IMR-90, 72 h, Control, log (dose) [M] -7.66, 72 h, mean n=3 (Fig 3C), read-out: Mean % Cell Survival
# [10] = Homo sapiens, IMR-90, 72 h, Control, log (dose) [M] -8, 72 h, mean n=3 (Fig 3C), read-out: Mean % Cell Survival
# [11] = Homo sapiens, IMR-90, Control cells, log (dose) [M] -7, individual replicates, SUP FIG 4C, read-out: % Cell Survival
# [12] = Homo sapiens, IMR-90, Control, log (dose) [M] -5.33, read-out: % Cell Survival
# [13] = Homo sapiens, IMR-90, Control, log (dose) [M] -5.66, read-out: % Cell Survival
# [14] = Homo sapiens, IMR-90, Control, log (dose) [M] -6, read-out: % Cell Survival
# [15] = Homo sapiens, IMR-90, Control, log (dose) [M] -6.33, read-out: % Cell Survival
# [16] = Homo sapiens, IMR-90, Control, log (dose) [M] -6.66, read-out: % Cell Survival
# [17] = Homo sapiens, IMR-90, Control, log (dose) [M] -7, read-out: % Cell Survival
# [18] = Homo sapiens, IMR-90, Control, log (dose) [M] -8, read-out: % Cell Survival
smiles,measurement,setting,value
"Cc1c(NC(=O)OC[C@@H]2COCCN2)cn2ncnc(Nc3ccc4c(cnn4Cc4cccc(F)c4)c3)c12.Cl.Cl [BMS 599626 2HCL, BMS 599626 dihydrochloride]",% Cell Survival,"Control cells, log (dose) [M] -5, individual replicates, SUP FIG 4C",105.353% and 91.3279% and 103.579%
same,% Cell Survival,"Control cells, log (dose) [M] -5.33, individual replicates, SUP FIG 4C",86.7238% and 73.5321% and 81.9018%
same,% Cell Survival,"Control cells, log (dose) [M] -5.66, individual replicates, SUP FIG 4C",118.415% and 87.5339% and 100.613%
same,% Cell Survival,"Control cells, log (dose) [M] -6, individual replicates, SUP FIG 4C",100.107% and 87.4435% and 90.184%
same,% Cell Survival,"Control cells, log (dose) [M] -6.33, individual replicates, SUP FIG 4C",111.884% and 90.2439% and 100.716%
same,% Cell Survival,"Control cells, log (dose) [M] -6.66, individual replicates, SUP FIG 4C",106.852% and 86.4499% and 109.816%
same,% Cell Survival,"Control cells, log (dose) [M] -7, individual replicates, SUP FIG 4C",101.927% and 74.8871% and 92.5358%
same,% Cell Survival,"Control cells, log (dose) [M] -7.33, individual replicates, SUP FIG 4C",103.426% and 89.7922% and 99.3865%
same,% Cell Survival,"Control cells, log (dose) [M] -7.66, individual replicates, SUP FIG 4C",119.807% and 91.5989% and 105.93%
same,% Cell Survival,"Control cells, log (dose) [M] -8, individual replicates, SUP FIG 4C",100.749% and 77.0551% and 102.454%
same,Mean % Cell Survival,"Control, log (dose) [M] -5, 72 h, mean n=3 (Fig 3C)",100.087%
same,Mean % Cell Survival,"Control, log (dose) [M] -5.33, 72 h, mean n=3 (Fig 3C)",80.7192%
same,Mean % Cell Survival,"Control, log (dose) [M] -5.66, 72 h, mean n=3 (Fig 3C)",102.188%
same,Mean % Cell Survival,"Control, log (dose) [M] -6, 72 h, mean n=3 (Fig 3C)",92.5782%
same,Mean % Cell Survival,"Control, log (dose) [M] -6.33, 72 h, mean n=3 (Fig 3C)",100.948%
same,Mean % Cell Survival,"Control, log (dose) [M] -6.66, 72 h, mean n=3 (Fig 3C)",101.039%
same,Mean % Cell Survival,"Control, log (dose) [M] -7, 72 h, mean n=3 (Fig 3C)",89.7834%
same,Mean % Cell Survival,"Control, log (dose) [M] -7.33, 72 h, mean n=3 (Fig 3C)",97.535%
same,Mean % Cell Survival,"Control, log (dose) [M] -7.66, 72 h, mean n=3 (Fig 3C)",105.779%
same,Mean % Cell Survival,"Control, log (dose) [M] -8, 72 h, mean n=3 (Fig 3C)",93.4195%
same,% Cell Survival,"Control, log (dose) [M] -5",100.351% and 111.029% and 102.815%
same,% Cell Survival,"Control, log (dose) [M] -5.33",101.964% and 126.351% and 107.239%
same,% Cell Survival,"Control, log (dose) [M] -5.66",131.276% and 125.833% and 112.534%
same,% Cell Survival,"Control, log (dose) [M] -6",101.823% and 113.768% and 114.812%
same,% Cell Survival,"Control, log (dose) [M] -6.33",107.574% and 113.397% and 102.681%
same,% Cell Survival,"Control, log (dose) [M] -6.66",98.317% and 111.029% and 104.088%
same,% Cell Survival,"Control, log (dose) [M] -7",103.156% and 106.366% and 100.335%
same,% Cell Survival,"Control, log (dose) [M] -7.33",103.086% and 108.882% and 96.7828%
same,% Cell Survival,"Control, log (dose) [M] -7.66",97.5456% and 102.221% and 100.201%
same,% Cell Survival,"Control, log (dose) [M] -8",96.0028% and 99.7779% and 101.072%
Cc1c(-c2c(F)cc(C(N)=O)c3[nH]c4c(c23)CC[C@H](C(C)(C)O)C4)cccc1-n1c(=O)c2cccc(F)c2n(C)c1=O [BMS 986142],viability at 10 µM,[1],97.1%
same,viability at 4.677 µM,[2],136%
same,viability at 2.188 µM,[3],117%
same,viability at 1 µM,[4],115%
same,viability at 0.4677 µM,[5],97.6%
same,viability at 0.2188 µM,[6],107%
same,viability at 0.1 µM,[7],108%
same,viability at 0.04677 µM,[8],105%
same,viability at 0.02188 µM,[9],114%
same,viability at 0.01 µM,[10],104%
same,viability at 10 µM,"Homo sapiens, IMR-90, Control cells, log (dose) [M] -5, individual replicates, SUP FIG 4C, read-out: % Cell Survival",104%
same,viability at 2.188 µM,"Homo sapiens, IMR-90, Control cells, log (dose) [M] -5.66, individual replicates, SUP FIG 4C, read-out: % Cell Survival",125%
same,viability at 1 µM,"Homo sapiens, IMR-90, Control cells, log (dose) [M] -6, individual replicates, SUP FIG 4C, read-out: % Cell Survival",119%
same,viability at 0.2188 µM,"Homo sapiens, IMR-90, Control cells, log (dose) [M] -6.66, individual replicates, SUP FIG 4C, read-out: % Cell Survival",108%
same,viability at 0.1 µM,[11],107%
same,viability at 0.04677 µM,"Homo sapiens, IMR-90, Control cells, log (dose) [M] -7.33, individual replicates, SUP FIG 4C, read-out: % Cell Survival",108%
same,viability at 0.02188 µM,"Homo sapiens, IMR-90, Control cells, log (dose) [M] -7.66, individual replicates, SUP FIG 4C, read-out: % Cell Survival",116%
same,viability at 0.01 µM,"Homo sapiens, IMR-90, Control cells, log (dose) [M] -8, individual replicates, SUP FIG 4C, read-out: % Cell Survival",104%
same,viability at 4.68 µM,[12],99.7%
same,viability at 2.19 µM,[13],88.8%
same,viability at 1 µM,[14],97.9%
same,viability at 0.468 µM,[15],91.9%
same,viability at 0.219 µM,[16],111%
same,viability at 0.1 µM,[17],92.2%
same,viability at 0.04677 µM,"Homo sapiens, IMR-90, Control, log (dose) [M] -7.33, read-out: % Cell Survival",101%
same,viability at 0.0219 µM,"Homo sapiens, IMR-90, Control, log (dose) [M] -7.66, read-out: % Cell Survival",94.6%
same,viability at 0.01 µM,[18],95.3%
"O=c1oc2c(O)c(O)cc3c(=O)oc4c(O)c(O)cc1c4c23 [Ellagic acid, ellagic acid]",viability at 10 µM,[1],108%
same,viability at 4.677 µM,[2],92.9%
same,viability at 2.188 µM,[3],111%
same,viability at 1 µM,[4],105%
same,viability at 0.4677 µM,[5],109%
same,viability at 0.2188 µM,[6],111%
same,viability at 0.1 µM,[7],102%
same,viability at 0.04677 µM,[8],107%
same,viability at 0.02188 µM,[9],112%
same,viability at 0.01 µM,[10],104%
same,viability at 0.4677 µM,"Homo sapiens, IMR-90, Control cells, log (dose) [M] -6.33, individual replicates, SUP FIG 4C, read-out: % Cell Survival",118%
same,viability at 0.1 µM,[11],103%
same,viability at 10 µM,"Homo sapiens, IMR-90, Control, log (dose) [M] -5, read-out: % Cell Survival",133%
same,viability at 4.68 µM,[12],122%
same,viability at 2.19 µM,[13],120%
same,viability at 1 µM,[14],123%
same,viability at 0.468 µM,[15],120%
same,viability at 0.219 µM,[16],122%
same,viability at 0.1 µM,[17],130%
same,viability at 0.01 µM,[18],115%

# From PMC10257182, “Discovery of senolytics using machine learning” (Nature Communications, 2023)
